Assay results: PubChem BioAssay (NCI)
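Growth conditions: 96-well plates. Treatment: test compound, 48 hours, 5 concentrations. Analysis: linear interpolation between bracketing concentrations; unreached endpoints set to highest concentration. At the GI50, growth is halved. TGI marks complete inhibition of growth.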

Key:
Test in all cases: NCI-60 cell line screen, 48 h
[1] = tested on: UACC-62 melanoma
[2] = tested on: SNB-75 CNS
[3] = tested on: HCT-15 colon
[4] = tested on: A549 NSCLC
[5] = tested on: SN12C renal
[6] = tested on: SK-MEL-28 melanoma
[7] = tested on: HOP-92 NSCLC
[8] = tested on: SF-295 CNS
[9] = tested on: OVCAR-8 ovarian
[10] = tested on: 786-0 renal
[11] = tested on: U251 CNS
[12] = tested on: SW-620 colon
[13] = tested on: COLO 205 colon
[14] = tested on: HCC-2998 colon
[15] = tested on: IGROV1 ovarian
[16] = tested on: PC-3 prostate
[17] = tested on: SF-268 CNS
[18] = tested on: UACC-257 melanoma
[19] = tested on: SF-539 CNS
[20] = tested on: MDA-MB-435
[21] = tested on: HL-60(TB) leukemia
[22] = tested on: NCI-H460 lung
[23] = tested on: SK-MEL-5 melanoma
[24] = tested on: SNB-19 CNS
[25] = tested on: RPMI-8226 leukemia
[26] = tested on: ACHN renal
[27] = tested on: NCI-H23 lung
[28] = tested on: MOLT-4 leukemia
[29] = tested on: MCF7 breast
[30] = tested on: HS 578T breast
[31] = tested on: A498 renal
[32] = tested on: NCI-H226 lung
[33] = tested on: CAKI-1 renal
[34] = tested on: HOP-62 NSCLC
[35] = tested on: OVCAR-3 ovarian
[36] = tested on: HCT-116 colon
[37] = tested on: LOX IMVI melanoma
[38] = tested on: MDA-MB-231 breast
[39] = tested on: KM12 colon
[40] = tested on: MALME-3M melanoma
[41] = tested on: OVCAR-5 ovarian
[42] = tested on: DU-145 prostate
[43] = tested on: BT-549 breast
[44] = tested on: T-47D breast
[45] = tested on: RXF 393 renal
[46] = tested on: K-562 leukemia
[47] = tested on: SR leukemia
[48] = tested on: OVCAR-4 ovarian
[49] = tested on: UO-31 renal
[50] = tested on: SK-OV-3 ovarian
[51] = tested on: NCI/ADR-RES ovarian
[52] = tested on: SK-MEL-2 melanoma
[53] = tested on: EKVX NSCLC
[54] = tested on: TK-10 renal
[55] = tested on: HT29 colon
[56] = tested on: NCI-H522 lung
[57] = tested on: M14 melanoma
[58] = tested on: CCRF-CEM leukemia

For Cc1c(C)n(CC(O)CNC2CCCCC2C)c2ccccc12 (stereo not given), the GI50 [1] was 14.8 µM, the TGI [1] was 29 µM and the GI50 [2] was 10.1 µM. It also gave a TGI [2] of 21.7 µM, a GI50 [3] of 12.6 µM and a TGI [3] of 26.5 µM. It also gave a GI50 [4] of 16.9 µM, a TGI [4] of 32.8 µM and a GI50 [5] of 16 µM. The TGI [5] was 30.5 µM, the GI50 [6] was 14 µM and the TGI [6] was 27.4 µM. For the same compound, the GI50 [7] was 4.76 µM, the TGI [7] was 17.8 µM and the GI50 [8] was 14.1 µM. For the same compound, the TGI [8] was 28.2 µM, the GI50 [9] was 16.2 µM and the TGI [9] was 31.2 µM. For the same compound, the GI50 [10] was 12.5 µM, the TGI [10] was 25.6 µM and the GI50 [11] was 13.8 µM. For the same compound, the TGI [11] was 26.7 µM, the GI50 [12] was 17.9 µM and the TGI [12] was 35 µM. The GI50 [13] was 2.21 µM, the TGI [13] was 4.82 µM and the GI50 [14] was 3.03 µM. For the same compound, the TGI [14] was 10.5 µM, the GI50 [15] was 16 µM and the TGI [15] was 31.9 µM. It also gave a GI50 [16] of 13.4 µM, a TGI [16] of 26.2 µM and a GI50 [17] of 15.4 µM. The TGI [17] was 30.2 µM, the GI50 [18] was 16.2 µM and the TGI [18] was 31 µM. It also gave a GI50 [19] of 15.8 µM, a TGI [19] of 30.4 µM and a GI50 [20] of 12.8 µM. It also gave a TGI [20] of 25.4 µM, a GI50 [21] of 19.2 µM and a TGI [21] of 42.7 µM. It also gave a GI50 [22] of 15.7 µM, a TGI [22] of 31 µM and a GI50 [23] of 12.6 µM. For the same compound, the TGI [23] was 25.4 µM, the GI50 [24] was 15.5 µM and the TGI [24] was 30.9 µM. It also gave a GI50 [25] of 9.48 µM, a TGI [25] of 28.6 µM and a GI50 [26] of 13.3 µM. It also gave a TGI [26] of 26 µM, a GI50 [27] of 16.8 µM and a TGI [27] of 32.8 µM. For the same compound, the GI50 [28] was 15.3 µM, the TGI [28] was 41.2 µM and the GI50 [29] was 13.2 µM. The TGI [29] was 28.3 µM, the GI50 [30] was 16.3 µM and the TGI [30] was 43 µM. It also gave a GI50 [31] of 4.99 µM, a TGI [31] of 19.6 µM and a GI50 [32] of 17.2 µM. It also gave a TGI [32] of 35.9 µM, a GI50 [33] of 12.4 µM and a TGI [33] of 24.9 µM. For the same compound, the GI50 [34] was 16.6 µM, the TGI [34] was 32 µM and the GI50 [35] was 16.4 µM. It also gave a TGI [35] of 29.9 µM, a GI50 [36] of 12 µM and a TGI [36] of 24.4 µM. It also gave a GI50 [37] of 14.8 µM, a TGI [37] of 28 µM and a GI50 [38] of 6.44 µM. It also gave a TGI [38] of 20.5 µM, a GI50 [39] of 15.3 µM and a TGI [39] of 28.9 µM. The GI50 [40] was 14.2 µM, the TGI [40] was 30.1 µM and the GI50 [41] was 12.9 µM. For the same compound, the TGI [41] was 25.7 µM, the GI50 [42] was 17.8 µM and the TGI [42] was 31.6 µM. For the same compound, the GI50 [43] was 16 µM, the TGI [43] was 30.1 µM and the GI50 [44] was 12.8 µM. The TGI [44] was 29.8 µM, the GI50 [45] was 10.5 µM and the TGI [45] was 23 µM. For the same compound, the GI50 [46] was 3.93 µM, the TGI [46] was 20.1 µM and the GI50 [47] was 12.4 µM. The TGI [47] was 34.1 µM, the GI50 [48] was 12 µM and the TGI [48] was 24.4 µM. It also gave a GI50 [49] of 10.8 µM, a TGI [49] of 23.4 µM and a GI50 [50] of 18.2 µM. It also gave a TGI [50] of 32.9 µM, a GI50 [51] of 15.5 µM and a TGI [51] of 29.8 µM.
Compound COc1ccc(Nc2[nH]n(C3=Nc4ccccc4Sc4ccccc43)c(=O)c2C#N)cc1 has a GI50 [1] of 1.21 µM, a TGI [1] of 11 µM and a GI50 [2] of 1.51 µM. It also gave a TGI [2] of over 100 µM, a GI50 [3] of 1.87 µM and a TGI [3] of 34.1 µM. The GI50 [4] was 1.62 µM, the TGI [4] was over 100 µM and the GI50 [5] was 2.36 µM. It also gave a TGI [5] of over 100 µM, a GI50 [6] of 3.87 µM and a TGI [6] of over 100 µM. It also gave a GI50 [8] of 0.56 µM, a TGI [8] of 4.34 µM and a GI50 [9] of 2.01 µM. It also gave a TGI [9] of over 100 µM, a GI50 [10] of 2.67 µM and a TGI [10] of 22.3 µM. The GI50 [11] was 2.5 µM, the TGI [11] was 43.3 µM and the GI50 [52] was 1.74 µM. For the same compound, the TGI [52] was 5 µM, the GI50 [53] was 0.781 µM and the TGI [53] was over 100 µM. For the same compound, the GI50 [12] was 3.18 µM, the TGI [12] was over 100 µM and the GI50 [13] was 1.51 µM. The TGI [13] was 3.35 µM, the GI50 [14] was 2.32 µM and the TGI [14] was 10.5 µM. For the same compound, the GI50 [15] was 2.79 µM, the TGI [15] was over 100 µM and the GI50 [16] was 0.676 µM. For the same compound, the TGI [16] was over 100 µM, the GI50 [17] was 2.37 µM and the TGI [17] was 34.3 µM. It also gave a GI50 [18] of 1.13 µM, a TGI [18] of 7.03 µM and a GI50 [19] of 3.37 µM. For the same compound, the TGI [19] was 40.9 µM, the GI50 [20] was 1.13 µM and the TGI [20] was 3.99 µM. It also gave a GI50 [22] of 1.95 µM, a TGI [22] of 12 µM and a GI50 [54] of 3.81 µM. It also gave a TGI [54] of 41 µM, a GI50 [23] of 0.396 µM and a TGI [23] of 1.48 µM. It also gave a GI50 [24] of 3.53 µM, a TGI [24] of over 100 µM and a GI50 [25] of 1.59 µM. The TGI [25] was over 100 µM, the GI50 [26] was 1.15 µM and the TGI [26] was over 100 µM. The GI50 [27] was 0.637 µM, the TGI [27] was 6.64 µM and the GI50 [55] was 1.99 µM. The TGI [55] was 9.35 µM, the GI50 [29] was 2.18 µM and the TGI [29] was 11.7 µM. It also gave a GI50 [30] of 1.98 µM, a TGI [30] of over 100 µM and a GI50 [31] of 1.39 µM. The TGI [31] was 8.01 µM, the GI50 [56] was 0.4 µM and the TGI [56] was 3.87 µM. For the same compound, the GI50 [32] was 1.48 µM, the TGI [32] was 9.81 µM and the GI50 [57] was 2.49 µM. It also gave a TGI [57] of 9.64 µM, a GI50 [33] of 0.255 µM and a TGI [33] of 1.57 µM. The GI50 [34] was 3.06 µM, the TGI [34] was over 100 µM and the GI50 [35] was 1.78 µM. It also gave a TGI [35] of 8.64 µM, a GI50 [36] of 1.33 µM and a TGI [36] of 12 µM. For the same compound, the GI50 [37] was 1.37 µM, the TGI [37] was 4.27 µM and the GI50 [38] was 1.39 µM. For the same compound, the TGI [38] was 11.9 µM, the GI50 [39] was 1.64 µM and the TGI [39] was 11.3 µM. The GI50 [40] was 2.67 µM, the TGI [40] was over 100 µM and the GI50 [41] was 10.8 µM. For the same compound, the TGI [41] was over 100 µM, the GI50 [42] was 2.83 µM and the TGI [42] was 61.5 µM. The GI50 [43] was 0.494 µM, the TGI [43] was 3.4 µM and the GI50 [44] was 0.696 µM. It also gave a TGI [44] of 9.22 µM, a GI50 [45] of 1.73 µM and a TGI [45] of 9.75 µM. It also gave a GI50 [47] of 0.518 µM, a TGI [47] of over 100 µM and a GI50 [48] of 0.803 µM. For the same compound, the TGI [48] was over 100 µM, the GI50 [49] was 1.02 µM and the TGI [49] was over 100 µM. The GI50 [58] was 1.19 µM, the TGI [58] was over 100 µM and the GI50 [50] was 5.9 µM. It also gave a TGI [50] of 54.1 µM, a GI50 [51] of 1.43 µM and a TGI [51] of 6.64 µM.
